Entries after “also recorded” stand apart in the source; their conditions may differ. Marks after values point to notes of the source that are not given here. Where a SMILES comes first, the peptide text is derived from it. Bridges are numbered along the chain shown (N, C = ends).
Columns and labels:
[1] = 10 μg i.p. once daily for 3 days, serum after 2 days, 1:100 diluted over AMSIN-immobilized CM5 chip
Protocol: Firstly, three female ICR mice (25 g each mouse, 6 weeks of age) were injected intraperitoneally (i.p.) with 10‐μg protein dissolved in 0.9% NaCl once daily (OD) for 3 days. One female ICR mouse of 25 g (6 weeks of age) injected with 0.9% NaCl in the same manner was used as control. Blood samples were then collected from the mouse retro‐orbital plexus after 2 days. Sera were obtained by centrifugation and stored at –20°C until further use. […] In this process, bovine serum albumin (BSA) was added at a final concentration of 0.25 mg/ml to inhibit non‐specific binding. The amount of bound material, if any, was determined by measuring the increase in RUs.

MRSA P1374 = test: Mouse peritonitis model; type: in vivo
Protocol: ICR male mice (30 g each mouse; 6 weeks of age) were infected with 0.5 ml of bacterial suspension (1 × 10^8 CFU per mouse) via intraperitoneal injection (i.p.), a dose that achieved 100% mortality within 24 h after infection. […] Vehicle (0.9%) treated control group included 11 mice. Schematic representation is provided in Appendix Fig S16C.

[2] = test system: Streptococcus pneumoniae ST556 (StrR); test: Inhibition-zone assay (lethal concentration); type: cell-based; details: streptomycin‐resistant strain; THY, 5% CO2, 37°C
Source text: (§1) Bacterial media used here included: Luria‐Bertani (LB) medium, THY medium (30 g Todd Hewitt broth and 5 g Yeast extract per liter), and tryptic soy broth (TSB) (Oxoid, Basingstoke, UK); Broth medium and brain–heart infusion (BHI) medium (Beijing Landbridge technology Limited by Share Ltd., Beijing, China); Potato dextrose (PD) medium (self‐prepared).
(§2) In brief, an overnight bacterial culture from a single colony was inoculated into fresh medium and grew to late log‐phase. A 10‐μl aliquot of each culture was diluted in 6‐ml pre‐heated medium containing 0.8% agar. The mixture was spread on a 9‐cm Petri dish, giving a depth of 1 mm. After settling, 3‐mm wells were punched in the plate and then 2‐μl peptide samples of different concentrations were added to each well. The agar plates were incubated overnight at indicated temperatures (Table EV4). A lethal concentration (C L ) was calculated from a plot of d^2 against log n, where d is the diameter (in cm) and n is the amount of sample applied in the well (in nmol). The plot is linear, and thus C L can be calculated from the slope (k) and the intercept (m) of this plot.

[3] = test system: Streptococcus pneumoniae D39; test: Inhibition-zone assay (lethal concentration); type: cell-based; details: THY, 5% CO2, 37°C
Source text: as §1, §2

[4] = test system: Staphylococcus aureus J708; test: Inhibition-zone assay (lethal concentration); type: cell-based; details: Broth Medium, 37°C
Source text: as §1, §2

[5] = test system: Staphylococcus aureus J700; test: Inhibition-zone assay (lethal concentration); type: cell-based; details: Broth Medium, 37°C
Source text: as §1, §2

[6] = test system: Streptococcus pneumoniae R6; test: Inhibition-zone assay (lethal concentration); type: cell-based; details: THY, 5% CO2, 37°C
Source text: as §1, §2

[7] = test system: Methicillin‐resistant Staphylococcus aureus P1386; test: Inhibition-zone assay (lethal concentration); type: cell-based; details: Broth Medium, 37°C
Source text: as §1, §2

[8] = test system: Methicillin‐resistant Staphylococcus aureus P1374; test: Inhibition-zone assay (lethal concentration); type: cell-based; details: Broth Medium, 37°C
Source text: as §1, §2

[9] = test system: Streptococcus pneumoniae TIGR4; test: Inhibition-zone assay (lethal concentration); type: cell-based; details: THY, 5% CO2, 37°C
Source text: as §1, §2

[10] = test system: Staphylococcus aureus J685; test: Inhibition-zone assay (lethal concentration); type: cell-based; details: Broth Medium, 37°C
Source text: as §1, §2

[11] = test system: Staphylococcus aureus J698; test: Inhibition-zone assay (lethal concentration); type: cell-based; details: Broth Medium, 37°C
Source text: as §1, §2

[12] = test system: penicillin‐sensitive Staphylococcus epidermidis P1111; test: Inhibition-zone assay (lethal concentration); type: cell-based; details: Broth Medium, 37°C
Source text: as §1, §2

[13] = test system: Streptococcus sanguinis CGMCC 1.2497 (ATCC 49295); test: Inhibition-zone assay (lethal concentration); type: cell-based; details: Broth Medium, 37°C
Source text: as §1, §2

[14] = test system: Streptococcus mutans CGMCC 1.2499 (ATCC 25175); test: Inhibition-zone assay (lethal concentration); type: cell-based; details: Broth Medium, 37°C
Source text: as §1, §2

[15] = test system: Streptomyces scabiei CGMCC 4.1765 (ATCC 49173); test: Inhibition-zone assay (lethal concentration); type: cell-based; details: Tryptone Soy Broth (TSB), 30°C
Source text: as §1, §2

[16] = test system: Streptococcus pneumoniae ST556; test: Inhibition-zone assay (lethal concentration); type: cell-based; details: THY, 5% CO2, 37°C
Source text: as §1, §2

[17] = test system: penicillin‐resistant Staphylococcus aureus P1383; test: Inhibition-zone assay (lethal concentration); type: cell-based; details: Broth Medium, 37°C
Source text: as §1, §2

[18] = test system: Staphylococcus aureus J710; test: Inhibition-zone assay (lethal concentration); type: cell-based; details: Broth Medium, 37°C
Source text: as §1, §2

[19] = test system: penicillin‐resistant Staphylococcus epidermidis P1389; test: Inhibition-zone assay (lethal concentration); type: cell-based; details: Broth Medium, 37°C
Source text: as §1, §2

[20] = test system: Staphylococcus aureus J706; test: Inhibition-zone assay (lethal concentration); type: cell-based; details: Broth Medium, 37°C
Source text: as §1, §2

[21] = test system: Staphylococcus aureus CGMCC 1.89; test: Inhibition-zone assay (lethal concentration); type: cell-based; details: Broth Medium, 37°C
Source text: as §1, §2

[22] = test system: Bacillus megaterium CGMCC 1.0459; test: Inhibition-zone assay (lethal concentration); type: cell-based; details: LB, 37°C
Source text: as §1, §2

[23] = test system: Bacillus subtilis CGMCC 1.2428; test: Inhibition-zone assay (lethal concentration); type: cell-based; details: LB, 37°C
Source text: as §1, §2

[24] = test system: Streptococcus salivarius CGMCC 1.2498 (ATCC 7073); test: Inhibition-zone assay (lethal concentration); type: cell-based; details: Broth Medium, 37°C
Source text: as §1, §2

[25] = test system: Lysinibacillus fusiformis; test: Inhibition-zone assay (lethal concentration); type: cell-based; details: Broth Medium, 37°C
Source text: as §1, §2

[26] = test system: Streptomyces griseus NBRC 13350; test: Inhibition-zone assay (lethal concentration); type: cell-based; details: PD, 28°C
Source text: as §1, §2

[27] = test system: Enterococcus faecalis V583 (ATCC 700802); test: Inhibition-zone assay (lethal concentration); type: cell-based; details: BHI, 37°C
Source text: as §1, §2

[28] = test system: SM (Streptococcus mutans); test: Killing kinetics assay; type: cell-based; details: peptide dose 4 × C L
Protocol: In brief, SM was grown overnight in broth medium and diluted in fresh medium to 1 × 10^8 CFU/ml. […] Viable cell counts were obtained after 24 h of incubation at 37°C. Bacterial growth in the medium without peptides was used as a control.

In the case of `CC[C@H](C)[C@@H]1NC(=O)[C@H](CCCCN)NC(=O)CNC(=O)[C@H](CCCNC(=N)N)NC(=O)[C@@H]2CSSC[C@H](NC(=O)CNC(=O)[C@H](Cc3ccccc3)NC(=O)CN)C(=O)N3CCC[C@H]3C(=O)N[C@@H](Cc3c[nH]c4ccccc34)C(=O)N[C@@H](CC(N)=O)C(=O)N[C@@H](C)C(=O)N[C@@H](Cc3ccc(O)cc3)C(=O)N[C@@H](CCC(=O)O)C(=O)N[C@H]3CSSC[C@H](NC(=O)[C@H]([C@@H](C)O)NC(=O)[C@H](CCC(N)=O)NC(=O)[C@H](CCCNC(=N)N)NC1=O)C(=O)N[C@@H](Cc1c[nH]cn1)C(=O)N[C@H](C(=O)N[C@@H](Cc1ccc(O)cc1)C(=O)O)CSSC[C@H](NC(=O)[C@H](Cc1c[nH]cn1)NC(=O)[C@H](CCCNC(=N)N)NC(=O)[C@H](CC(=O)O)NC3=O)C(=O)N[C@@H](C(C)C)C(=O)N[C@@H](CO)C(=O)N[C@@H](CCCCN)C(=O)NCC(=O)N[C@@H](Cc1ccc(O)cc1)C(=O)N[C@@H]([C@@H](C)O)C(=O)NCC(=O)NCC(=O)N[C@@H](CC(N)=O)C(=O)N2` [AMSIN] (H-GFGCPWNAYECDRHCVSKGYTGGNCRGKIRQTCHCY-OH; disulfide 4-25, 11-33, 15-35; N-terminus and C-terminus assumed), the “Anti-drug antibody in AMSIN-treated mouse serum” value [1] is reported as “no obvious anti‐drug antibody”, the “Survival after peritoneal infection with MRSA P1374” value (MRSA P1374; 1 × 10^8 CFU i.p., AMSIN i.v. 1 h post‐infection 20 mg per kg, then 10 mg per kg once daily, six mice, 7‐day study period) is reported as “all survived; also recorded: survived the 7‐day study period” and the “Toxicity of administration route in the model” value (MRSA P1374; intravenous injection (i.v.)) is reported as “no obvious toxicity”. The “Duration of continued survival” value (MRSA P1374; same six treated mice, observation period) was > 30 days, the “Lethal concentration (C L)” value [2] was < 0.14 µM and the “Lethal concentration (C L)” value [3] was 0.09 µM. The “Lethal concentration (C L)” value [4] was 1.14 µM, the “Lethal concentration (C L)” value [5] was 5.20 µM and the “Lethal concentration (C L)” value [6] was 0.14 µM. For the same compound, the “Lethal concentration (C L)” value [7] was 0.74 µM, the “Lethal concentration (C L)” value [8] was 0.62 µM and the “Lethal concentration (C L)” value [9] was 0.14 µM. The “Lethal concentration (C L)” value [10] was 10.40 µM, the “Lethal concentration (C L)” value [11] was 5.20 µM and the “Lethal concentration (C L)” value [12] was 5.20 µM. The “Lethal concentration (C L)” value [13] was 1.41 µM, the “Lethal concentration (C L)” value ([14]; AMSIN alone) was 1.01 µM and the “Lethal concentration (C L)” value ([14]; In combination with HNP1&2) was 0.38 ^a µM. The “Lethal concentration (C L)” value ([14]; In combination with hLZc) was 0.56 ^b µM, the “Lethal concentration (C L)” value [15] was 2.01 µM and the “Lethal concentration (C L)” value [16] was 0.14 µM. For the same compound, the “Lethal concentration (C L)” value [17] was 4.28 µM, the “Lethal concentration (C L)” value [18] was 2.60 µM and the “Lethal concentration (C L)” value [19] was 1.14 µM. The “Lethal concentration (C L)” value [20] was 5.20 µM, the “Lethal concentration (C L)” value [21] was 5.20 µM and the “Lethal concentration (C L)” value ([22]; AMSIN alone) was 0.11 µM. For the same compound, the “Lethal concentration (C L)” value ([22]; In combination with HNP1&2) was 0.038 ^a µM, the “Lethal concentration (C L)” value ([22]; In combination with hLZc) was 0.045 ^b µM and the “Lethal concentration (C L)” value [23] was 1.00 µM. The “Lethal concentration (C L)” value [24] was 0.49 µM, the “Lethal concentration (C L)” value [25] was 0.27 µM and the “Lethal concentration (C L)” value [26] was 2.89 µM. The “Lethal concentration (C L)” value [27] was 4.65 µM, the “Viable SM cells in killing kinetics” value ([28]; 0 min, start 1 × 10^8 CFU/ml) was 8 Log10 (CFU/mL) and the “Viable SM cells in killing kinetics” value ([28]; 15 min) was 9 Log10 (CFU/mL). The “Viable SM cells in killing kinetics” value ([28]; 30 min) was 8.9 Log10 (CFU/mL), the “Viable SM cells in killing kinetics” value ([28]; 120 min) was 8.7 Log10 (CFU/mL) and the “Viable SM cells in killing kinetics” value ([28]; 240 min) was 8.5 Log10 (CFU/mL).
